{"source": "patent EP1147767A1", "about": "(J.B. Chemicals & Pharmaceuticals Ltd., priority 2000, dated 2001)", "origin": "cited, not measured here", "key": {"[1]": {"settings": "200 mg twice daily; Pierleoni et al. 1993"}, "[2]": {"settings": "200 mg twice daily, rectally; Coscarelli et al. 1993"}, "[3]": {"settings": "200 mg twice daily, granular formulation; versus naproxen 500 mg twice daily; Toscani et al. 1993"}, "[4]": {"settings": "animal model; comparison with other NSAIDs"}, "[5]": {"settings": "200mg 3 times daily, rectally; Ramella et al. 1993"}, "[6]": {"settings": "rats; comparison with other drugs"}, "[7]": {"settings": "200 mg/day; respiratory tract infections, ENT disorders, dysmenorrhoea, dental surgery, urogenital tract disorders, musculoskeletal injuries"}}}
{"smiles": "CS(=O)(=O)Nc1ccc([N+](=O)[O-])cc1Oc1ccccc1", "note": "[Nimesulide, 4'-Nitro-2'-phenoxymethanesulphonanilide]", "values": [{"measurement": "relief", "setting": "[1]", "value": "gave relief"}, {"measurement": "relief of pain", "setting": "[2]", "value": "gave relief in the pain associated with postoperative inflammatory complications of ear, nose and throat surgery"}, {"measurement": "analgesic efficacy (pain)", "setting": "[3]", "value": "similarly reduced pain with naproxen 500 mg twice daily"}, {"measurement": "ulcerogenic", "setting": "[4]", "value": "less ulcerogenic than aspirin, indomethacin, naproxen, piroxicam and ibuprofen"}, {"measurement": "adverse reaction", "setting": "[5]", "value": "no adverse reaction"}, {"measurement": "pain, oedema, hyperaemia and fever", "setting": "[5]", "value": "significantly less pain, oedema and hyperaemia and resolution of mild fever"}, {"measurement": "antipyretic potency", "setting": "[6]", "value": "superior antipyretic potency to indomethacin, ibuprofen, aspirin and paracetamol"}, {"measurement": "reducing clinical symptoms", "setting": "[7]", "value": "generally more effective than the usual therapeutic doses of naproxen, ibuprofen, ketoprofen mefenamic acid and suprofen"}]}
